The numbers were not newly measured in patent US20150132440A1, “DIPEPTIDE AND TRIPEPTIDE COMPOSITIONS AND USES” (4141 HOLDINGS, LLC, priority 2013, published 2015), which cites them from elsewhere.

Where a SMILES comes first, the peptide text is derived from it.

Data set [1] concerns Caco-2 cells. Particulars: for inhibition of H2O2-induced IL-8 secretion: Caco-2 cells pretreated with amino acids (1, 2, and 5 mM) for 2 hours, then 1 mM H2O2 for 6 hours, ELISA. In general terms: An ELISA detects its analyte on a solid surface through an enzyme-linked reagent.
In data set [2] the test system is L6 myotubes. Particulars: for glucose uptake rate: L6 myotubes.
Data set [3] relates to isolated skeletal muscles.
Data set [4] has as its system glucose transporter GLUT-4. Particulars: compared with the other WPH components tested; for efficiency in translocating GLUT-4 to the PM: animal skeletal muscle.
For data set [5], the system named is Akt. Particulars: supplementation.
The conditions of data set [6]: ESR technique.
The subject of data set [7] is human dermal fibroblasts (HDFs). Particulars: for protein expression levels of intracellular antioxidant enzymes SOD1, GSH and catalase: H2O2 stressed HDF cells; for H2O2 induced DNA damage / H2O2 induced ROS production / NF-κB activation: HDF cells.

`C[C@H](N)C(=O)O` [Ala]: the GSH reductase activity entry in data set [1] (Caco-2 cells) is recorded as “enhanced”. In addition, the “inhibition of H2O2-induced IL-8 secretion” value (from here on “inhibition”) in data set [1] is reported as “inhibition of H2O2-induced IL-8 secretion from Caco-2 cells was observed”.

For the compound `CN(C)CCCn1cc(C2=C(c3c[nH]c4ccccc34)C(=O)NC2=O)c2ccccc21` [GF109203X], the “stimulation of glucose uptake by Ile-Leu under inhibitor treatment” value in data set [2] (L6 cells) and in data set [3] (isolated muscles) was “completely inhibited” each time.

Take `N[C@@H](Cc1c[nH]cn1)C(=O)O` [His]: the “GSH S-transferase (GST) activity” value in data set [1] (Caco-2 cells) is “increases”. The “inhibition” value in data set [1] is “inhibition of H2O2-induced IL-8 secretion from Caco-2 cells was observed”.

With `CC[C@H](C)[C@H](N)C(=O)O` [Ile, L-isoleucine], in data set [1] (Caco-2 cells), the “GSH S-transferase (GST) activity” value is on record as “elevated” and the catalase activity entry is “elevated”. The “inhibition” value in data set [1] is reported as “inhibition of H2O2-induced IL-8 secretion from Caco-2 cells was observed”. In data set [4], the “efficiency in translocating GLUT-4 to the PM” value is reported as “greater efficiency” and the “efficiency of increasing glucose capture by skeletal muscle” value is “greater efficiency”.

In the case of `CC[C@H](C)[C@H](N)C(=O)N[C@H](C(=O)O)[C@@H](C)CC` [Ile-Ile, L-Isoleucyl-L-isoleucine] (H-Ile-Ile-OH), the glucose uptake rate entry in data set [2] is reported as “significant stimulation”.

In the case of `CC[C@H](C)[C@H](N)C(=O)N[C@@H](CC(C)C)C(=O)O` [Ile-Leu, L-Isoleucyl-L-Leucine] (H-Ile-Leu-OH), the glucose uptake rate result in data set [2] is “significant stimulation”. The glycogen contents entry in data set [3] (isolated muscles) was “increased”. Besides, the glucose uptake entry in data set [3] (isolated skeletal muscles) is recorded as “stimulated”.

As to `CC[C@H](C)[C@H](NC(=O)[C@@H](N)CC(C)C)C(=O)O` [L-Leucyl-L-isoleucine] (H-Leu-Ile-OH), in data set [4], the “efficiency in translocating GLUT-4 to the PM” value was “greater efficiency” and the “efficiency of increasing glucose capture by skeletal muscle” value was “greater efficiency”. For the same compound, the “activation of Akt” value in data set [5] is recorded as “activation”.

Take `CC(C)C[C@H](N)C(=O)O` [Leu, L-leucine]: in data set [1] (Caco-2 cells), the “GSH S-transferase (GST) activity” value was “elevated” and the catalase activity result is “elevated”. Moreover, the “inhibition” value in data set [1] was “inhibition of H2O2-induced IL-8 secretion from Caco-2 cells was observed”.

In the case of `CC(C)C[C@H](NC(=O)[C@@H](N)CC(C)C)C(=O)O` [Leu-Leu, L-Leucyl-L-leucine], the glucose uptake rate entry in data set [2] is given as “significant stimulation”.

For the compound `NCCCC[C@H](N)C(=O)O` [Lys], in data set [1] (Caco-2 cells), the “GSH S-transferase (GST) activity” value was “increases”. Besides, the “inhibition” value in data set [1] is “inhibition of H2O2-induced IL-8 secretion from Caco-2 cells was observed”.

Consider `N[C@@H](Cc1c[nH]c2ccccc12)C(=O)O` [Trp], for which the “GSH S-transferase (GST) activity” value in data set [1] (Caco-2 cells) was “increases”. The “inhibition” value in data set [1] is “inhibition of H2O2-induced IL-8 secretion from Caco-2 cells was observed”.

With `CC(C)[C@H](N)C(=O)O` [Val, valine], in data set [1] (Caco-2 cells), the “GSH S-transferase (GST) activity” value is recorded as “elevated” and the catalase activity entry is “elevated”. The “inhibition” value in data set [1] is listed as “inhibition of H2O2-induced IL-8 secretion from Caco-2 cells was observed”.

For the compound Ile-Val, in data set [2], the glucose uptake rate entry is reported as “significant stimulation”.

Take Leu-Val: the glucose uptake rate result in data set [2] is recorded as “significant stimulation”.

As for “SPP-1: peptide QLGNLGV derived from seaweed pipefish Syngnathus schlegeli”, in data set [6], the “hydroxyl radical scavenging activity” value is on record as “significant”. Also, in data set [7], the “protein expression levels of intracellular antioxidant enzymes SOD1, GSH and catalase” value is “increase”; the “H2O2 induced DNA damage” value is listed as “effectively suppressed”; the “H2O2 induced ROS production” value was “effectively suppressed”; the NF-κB activation result was “block”.

For “SPP-2: peptide SVMPVVA derived from seaweed pipefish Syngnathus schlegeli”, the “hydroxyl radical scavenging activity” value in data set [6] is on record as “significant”. In addition, in data set [7], the “protein expression levels of intracellular antioxidant enzymes SOD1, GSH and catalase” value was “increase”; the “H2O2 induced DNA damage” value is “effectively suppressed”; the “H2O2 induced ROS production” value is “effectively suppressed”; the NF-κB activation result is recorded as “block”.

Consider Val-Leu, for which, in data set [2], the glucose uptake rate entry was “significant stimulation”.
